Reference: ChEMBL document CHEMBL1134158, “Antimycobacterial in vitro activity of cobalt(II) isonicotinoylhydrazone complexes. Part 10” (2001)
Values after ≈ are worked out from the molar mass of the structure shown.

Test system: Mycobacterium tuberculosis
Assay: In vitro anti-mycobacterial activity against Mycobacterium tuberculosis H37Rv
Format: functional

**Q.** For `CO[C@H]1/C=C/O[C@@]2(C)Oc3c(C)c(O)c4c(O)c(c(/C=N/N5CCN(C)CC5)c(O)c4c3C2=O)NC(=O)/C(C)=C\C=C\[C@H](C)[C@H](O)[C@@H](C)[C@@H](O)[C@@H](C)[C@H](OC(C)=O)[C@@H]1C` [RIFAMPIN], which MIC is on record?
**A.** The MIC was 0.06 µg/mL (≈ 0.0729 µM).

**Q.** With `NNC(=O)c1ccncc1` [ISONIAZID] as the compound, how does the MIC read?
**A.** Its MIC is 0.025 µg/mL (≈ 0.182 µM).
